This experiment has as its target Human plasma kallikrein (Homo sapiens (Human), UniProt P03952). Kind of experiment: In vitro plasma kallikrein inhibition assay (chromogenic substrate D-Pro-Phe-Arg-pNa, absorbance at 405 nm, IC50 determination). The format is biochemical.
Sequence of Human plasma kallikrein (P03952 391-638): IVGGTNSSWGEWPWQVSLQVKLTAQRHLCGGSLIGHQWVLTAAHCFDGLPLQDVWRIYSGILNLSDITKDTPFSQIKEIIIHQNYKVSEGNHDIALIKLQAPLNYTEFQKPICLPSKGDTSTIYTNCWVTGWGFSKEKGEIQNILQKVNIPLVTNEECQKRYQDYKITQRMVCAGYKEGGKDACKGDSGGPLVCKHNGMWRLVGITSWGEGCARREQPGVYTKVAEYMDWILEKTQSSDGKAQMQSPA
Sequence of Human plasma kallikrein (P03952 20-390 partner): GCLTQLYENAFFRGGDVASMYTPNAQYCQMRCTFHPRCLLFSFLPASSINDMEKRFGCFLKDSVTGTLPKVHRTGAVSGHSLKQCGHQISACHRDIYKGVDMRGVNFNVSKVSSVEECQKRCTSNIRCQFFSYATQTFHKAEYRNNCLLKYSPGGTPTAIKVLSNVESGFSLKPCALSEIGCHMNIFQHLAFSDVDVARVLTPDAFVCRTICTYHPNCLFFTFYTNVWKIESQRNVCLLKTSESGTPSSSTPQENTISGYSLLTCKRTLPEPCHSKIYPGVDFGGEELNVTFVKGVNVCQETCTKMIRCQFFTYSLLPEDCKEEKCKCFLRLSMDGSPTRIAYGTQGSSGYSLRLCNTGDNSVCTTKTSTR
In the case of “(±)-N4-[(6-amino-2,4- dimethylpyridin-3-yl)methyl]- 11-cyano-15-oxatetracyclo- [6.6.1.0^2,^7.0^9,1^4]pentadeca- 2,4,6,9,11,13-hexaene-4,12- dicarboxamide and (±)-N4-[(6- amino-2,4-dimethylpyridin-3- yl)methyl]-12-cyano-15- oxatetracyclo[6.6.1.0^2,^7.0^9,1^4] pentadeca-2,4,6,9,11,13- hexaene-4,11-dicarboxamide [Example 333]”, the “KLKB1 pIC50” value is reported as 5.64.
With “(±)-N-[(4-carbamimidoylphenyl) methyl]-12-(4- fluorophenyl)-8-methyl-15- oxatetracyclo- [6.6.1.0^2,^7.0^9,1^4]pentadeca- 2,4,6,9,11,13-hexaene-4- carboxamide [Example 346]”, the “KLKB1 pIC50” value was 7.26.
The figure for “(±)-N-[(6-amino-2,4- dimethylpyridin-3-yl) methyl]-12-(2,4- difluorophenyl)tetracyclo- [6.6.1.0^2,^7.0^9,1^4]hexadeca- 2,4,6,9,11,13-hexaene-4- carboxamide and (±)-N-[(6- amino-2,4-dimethylpyridin- 3-yl)methyl]-11-(2,4- difluorophenyl)tetracyclo [6.6.1.0^2,^7.0^9,1^4]hexadeca- 2,4,6,9,11,13-hexaene-4- carboxamide [Example 261]” is 6.32.
Under “(±)-N-[(6-amino-2,4- dimethylpyridin-3-yl)-methyl]- 12-(2,4-difluorophenyl)-15- methyl-15-azatetracyclo [6.6.1.0^2,^7.0^9,1^4]pentadeca- 2,4,6,9,11,13- hexaene-4-carboxamide and (±)-N-[(6-amino-2,4- dimethylpyridin-3-yl)methyl]- 11-(2,4-difluorophenyl)-15- methyl-15-azatetra-cyclo [6.6.1.0^2,^7.0^9,1^4]pentadeca- 2,4,6,9,11,13-hexaene-4- carboxamide [Example 115]” stands 4; under “(±)-N-[(6-amino-2,4- dimethylpyridin-3-yl)methyl]- 12-(4-fluorophenyl)-1,8- dimethyl-15- oxatetracyclo[6.6.1.0^2,^7.0^9,1^4] pentadeca-2,4,6,9,11,13- hexaene-4-carboxamide and (±)-N-[(6-amino-2,4- dimethylpyridin-3-yl)methyl]- 11-(4-fluorophenyl)-1,8- dimethyl-15-oxatetracyclo [6.6.1.0^2,^7.0^9,1^4]pentadeca- 2,4,6,9,11,13-hexaene-4- carboxamide [Example 339]”, 4.
Take “(±)-N-[(6-amino-2,4- dimethylpyridin-3-yl)methyl]- 12-(phenylsulfanyl)-15- oxatetracyclo[6.6.1.0^2,^7.0^9,1^4] pentadeca- 2,4,6,9,11,13-hexaene-4- carboxamide (±)-N-[(6-amino-2,4- dimethylpyridin-3-yl)methyl]-11- (phenylsulfanyl)-15- oxatetracydo[6.6.1.0^2,^7.0^9,1^4] pentadeca-2,4,6,9,11,13- hexaene-4-carboxamide [Example 164]”: the “KLKB1 pIC50” value amounted to 6.86.
The figure for “(±)-N-[(6-amino-2,4-dimethyl- pyridin-3-yl)methyl]-12-(2,4- difluorophenyl)-11-ethenyl-15- oxatetracyclo[6.6.1.0^2,^7.0^9,1^4] pentadeca-2,4,6,9,11,13- hexaene-4-carboxamide and (±)-N-[(6-amino-2,4- dimethylpyridin-3-yl)methyl]- 11-(2,4-difluorophenyl)-12- ethenyl-15-oxatetraoyclo [6.6.1.0^2,^7.0^9,1^4]pentadeca- 2,4,6,9,11,13-hexaene-4- carboxamide [Example 322]” is 8.57; for “(±)-N-[(6-amino-2,4-dimethyl- pyridin-3-yl)methyl]-12-(2,4- difluorophenyl)-11-methyl-15- oxatetracyclo[6.6.1.0^2,^7.0^9,1^4] pentadeca-2,4,6,9(14),10,12- hexaene-4-carboxamide and (±)-N-[(6-amino-2,4- dimethylpyridin-3-yl)methyl]-11- (2,4-difluorophenyl)-12- methyl-15-oxatetracyclo [6.6.1.0^2,^7.0^9,1^4]pentadeca- 2,4,6,9(14),10,12-hexaene-4- carboxamide [Example 310]” it is 7.7; for “(±)-N-[(6-amino-4-ethoxy- 2-methylpyridin-3-yl)methyl]-12- (2,4-difluorophenyl)-16-oxo-15- azatetracyclo[6.6.1.0^2,^7.0^9,1^4] hexadeca-2,4,6,9,11,13- hexaene-4-carboxamide and (±)-N-[(6-amino-4-ethoxy-2- methylpyridin-3-yl)methyl]- 11-(2,4-difluorophenyl)-16-oxo- 15-azatetracyclo[6.6.1.0^2,^7.0^9,1^4] hexadeca-2,4,6,9,11,13- hexaene-4-carboxamide [Example 163]” it is 6.11.

The values are drawn from patent US10144746B2 (GLOBAL BLOOD THERAPEUTICS, INC., priority 2015, dated 2018).
